Source: publication PMC5587527, “A fragment-based approach leading to the discovery of a novel binding site and the selective CK2 inhibitor CAM4066” (Bioorganic & Medicinal Chemistry, 2017)

Biological target: T1, CK2α (Homo sapiens, UniProt P68400)
Assay: biochemical
Settings: read-out: % Inhibition at 500 μM

T1 sequence (P68400 whole entry): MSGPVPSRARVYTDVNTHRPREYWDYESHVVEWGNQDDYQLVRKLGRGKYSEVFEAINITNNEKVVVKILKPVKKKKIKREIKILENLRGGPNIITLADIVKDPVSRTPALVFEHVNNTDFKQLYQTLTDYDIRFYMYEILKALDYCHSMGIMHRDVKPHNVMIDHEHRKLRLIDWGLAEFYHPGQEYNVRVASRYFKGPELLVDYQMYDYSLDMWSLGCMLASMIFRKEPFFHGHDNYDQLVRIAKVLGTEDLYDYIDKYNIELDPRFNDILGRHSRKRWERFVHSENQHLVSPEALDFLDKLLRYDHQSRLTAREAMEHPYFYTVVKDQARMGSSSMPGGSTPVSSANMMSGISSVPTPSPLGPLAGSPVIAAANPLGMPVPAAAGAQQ

Going from `CNCc1ccc(-c2ccccc2)c(Cl)c1` [Compound 10] to `CCNCc1ccc(-c2ccccc2)c(Cl)c1` [Compound 11], the inhibition at 500 µM falls from 44 ± 12% to 23 ± 6%.

Going from `CCCNCc1ccc(-c2ccccc2)c(Cl)c1` [Compound 12] to `OCCCNCc1ccc(-c2ccccc2)c(Cl)c1` [Compound 13], the inhibition at 500 µM rises from 33 ± 5% to 47 ± 5%.

`NCCCCNCc1ccc(-c2ccccc2)c(Cl)c1` [Compound 14] and `NC(=O)CCNCc1ccc(-c2ccccc2)c(Cl)c1` [Compound 16] are within error of each other in inhibition at 500 µM: 18 ± 2% for the first, 16 ± 6% for the second.

First: CC(=O)NCCCNCc1ccc(-c2ccccc2)c(Cl)c1 [Compound 15]
Second: CC(=O)NCCNCc1ccc(-c2ccccc2)c(Cl)c1 [Compound 17]
The inhibition at 500 µM of the first is higher: 39 ± 3% for the first, 12 ± 4% for the second.

First: CS(=O)(=O)NCCCNCc1ccc(-c2ccccc2)c(Cl)c1 [Compound 18]
Second: O=C(O)CC(=O)NCCCNCc1ccc(-c2ccccc2)c(Cl)c1 [Compound 20]
The inhibition at 500 µM of the first is higher: 51 ± 10% for the first, 20 ± 4% for the second.

For `COC(=O)CC(=O)NCCCNCc1ccc(-c2ccccc2)c(Cl)c1.Cl` [Compound 19], the inhibition at 500 µM was 46 ± 2%.

Biological target: T1, CK2α
Assay: not given
Settings: from ITC Kd

Compared with `COC(=O)CC(=O)NCCCNCc1ccc(-c2ccccc2)c(Cl)c1.Cl` [Compound 19], `O=C(O)CC(=O)NCCCNCc1ccc(-c2ccccc2)c(Cl)c1` [Compound 20] is lower in ligand efficiency: 0.23 for the first, 0.19 for the second.
